In patent US7405240B2, “Substituted cyclopentanes or cyclopentanones as therapeutic agents” (Allergan, Inc., priority 2006, dated 2008):

Legend:
hEP2 [1] = molecular target: T1, hEP2 (Homo sapiens, UniProt P43116); assay: cAMP assay, hEP2; assay type: cell-based
normotensive dogs = assay: Intraocular pressure and ocular surface hyperemia in normotensive dogs; assay type: in vivo, dog; parameters: maximum OSH score: scale not given here; settings: 0.1%, once daily for 5 days; for change in vivo at 0.1 %: Canis lupus familiaris, topical, 120 h, read-out: maximum IOP decrease from baseline
Protocol: (§1) (Z)-7-[(1R,2S,3R,5R)-5-Chloro-2-(3,5-dichloro-phenoxymethyl)-3-hydroxy-cyclopentyl]-hept-5-enoic acid (15b) was tested at multiple concentrations in normotensive dogs, dosing once daily for 5 days. At 0.05%, the maximum IOP decrease from baseline was 4.3 mmHg (30%) at 6 h; the maximum OSH score was 0.6 at 6 h. […] This compound was also tested in laser-induced hypertensive monkeys, using one single day dose. At 0.1%, the maximum IOP decrease from baseline was 6 mmHg (19%) at 6 h.
(§2) (Z)-7-[(1R,2S,3R,5R)-5-Chloro-2-(3,5-dichloro-phenoxymethyl)-3-hydroxy-cyclopentyl]-hept-5-enoic acid isopropyl ester (42b) was tested in normotensive dogs at 0.05%, dosing once daily for 5 days. The maximum intraocular pressure (IOP) decrease from baseline was 3 mmHg (19%) at 6 h; the maximum ocular surface hyperemia (OSH) score was 0.6 at 74 h. This compound was also tested in laser-induced hypertensive monkeys, using one single day dose. At 0.01%, the maximum IOP decrease from baseline was 6 mmHg (16%) at 6 h.

[2] = system: laser-induced hypertensive monkeys; assay: Intraocular pressure in laser-induced hypertensive monkeys; assay type: in vivo, monkey; settings: 0.1%, one single day dose; for change in vivo at 0.1 %: Primates, topical, read-out: maximum IOP decrease from baseline
Protocol: as §1, §2

hEP2 [3] = molecular target: T1, hEP2; assay: Competition binding, [3H]PGE2, human EP2 receptors; parameters: expressed in transfected cells; host or cells: HEK 293; settings: [3H]PGE2, HEK 293 cells stably expressing human EP2; read-out: hEP2 Ki
In short: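 HEK 293 membranes or cells stably expressing human EP2 were incubated with 10 nM [3H]PGE2 and test compound in HBSS/20 mM Hepes pH 7.3, 60 min at 23° C, then filtered. Non-specific binding defined with 10 μM PGE2; IC50 from single-site fit converted to Ki using KD 40 nM.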

hEP4 [4] = molecular target: T2, hEP4 (Homo sapiens, UniProt P35408); assay: Radioligand binding, EP4 receptor; parameters: expressed in transfected cells; host or cells: HEK-293; settings: [3H]PGE2, HEK-293 cells expressing EP4
T2 sequence (P35408 whole entry): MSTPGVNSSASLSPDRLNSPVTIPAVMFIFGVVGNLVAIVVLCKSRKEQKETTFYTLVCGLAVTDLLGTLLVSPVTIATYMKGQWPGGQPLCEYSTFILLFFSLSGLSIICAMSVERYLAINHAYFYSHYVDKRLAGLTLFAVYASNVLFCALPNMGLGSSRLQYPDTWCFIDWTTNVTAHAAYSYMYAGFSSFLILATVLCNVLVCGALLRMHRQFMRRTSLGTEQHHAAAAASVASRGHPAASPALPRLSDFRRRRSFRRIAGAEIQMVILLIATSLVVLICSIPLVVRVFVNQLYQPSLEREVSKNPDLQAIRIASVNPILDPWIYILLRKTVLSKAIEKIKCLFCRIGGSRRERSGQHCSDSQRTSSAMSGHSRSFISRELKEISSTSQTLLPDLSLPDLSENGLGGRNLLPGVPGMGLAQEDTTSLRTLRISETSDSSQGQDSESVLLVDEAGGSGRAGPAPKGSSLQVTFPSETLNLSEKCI
In short: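 HEK-293 membranes stably expressing human EP4, in TME buffer pH 7.4; competition vs 5 nM [3H]-PGE2, 60 min at 25 °C, stopped by GF/B filtration. Non-specific binding defined with 10^−5 M unlabeled PGE2; duplicates, at least three experiments.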

hEP2 [5] = molecular target: T1, hEP2; assay: FLIPR calcium signal, hEP2; assay type: cell-based; parameters: expressed in transfected cells; host or cells: HEK-293(EBNA); settings: HEK-293(EBNA) cells expressing hEP2/Gqs5
In short: (§3)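 HEK-293(EBNA) cells stably expressing a single human prostaglandin receptor (hDP/Gqs5 chimera for DP), Fluo-4 AM loaded, in HBSS-HEPES pH 7.4 at 37 °C. Peak calcium fluorescence scaled to buffer and receptor standard agonist; 10^−5 M single-point or 10^−5–10^−11 M curves, duplicates, n≥3.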

hEP4 [6] = molecular target: T2, hEP4; assay: FLIPR calcium signal, hEP4; assay type: cell-based; parameters: expressed in transfected cells; host or cells: HEK-293(EBNA); settings: HEK-293(EBNA) cells expressing hEP4/Gqs5
In short: as §3

T1 sequence (P43116 whole entry): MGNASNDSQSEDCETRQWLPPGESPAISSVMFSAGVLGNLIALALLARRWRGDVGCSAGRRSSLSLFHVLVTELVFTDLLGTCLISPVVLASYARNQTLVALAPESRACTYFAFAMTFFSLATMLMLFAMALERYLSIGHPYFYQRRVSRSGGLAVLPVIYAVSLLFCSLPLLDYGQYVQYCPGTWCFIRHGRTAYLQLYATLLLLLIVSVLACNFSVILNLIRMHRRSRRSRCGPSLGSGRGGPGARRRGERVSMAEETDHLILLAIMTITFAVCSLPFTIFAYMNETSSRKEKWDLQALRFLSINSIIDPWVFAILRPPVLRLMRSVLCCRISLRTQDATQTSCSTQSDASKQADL

EC50 (hEP2 [1])	maximum OSH score (normotensive dogs)	time of maximum OSH score (normotensive dogs)	Ki (hEP2 [3])	Ki (hEP4 [4])	EC50 (hEP2 [5])	EC50 (hEP4 [6])	Structure (SMILES)	maximum IOP decrease from baseline (normotensive dogs)	time of maximum IOP decrease (normotensive dogs)	change in vivo at 0.1 % (normotensive dogs)	maximum IOP decrease from baseline [2]	time of maximum IOP decrease [2]	change in vivo at 0.1 % [2]
1.4 nM	1.2	28 h	31 nM	1090 nM	27 nM	7720 nM	Cc1cc(C)cc(OC[C@@H]2[C@@H](C/C=C\CCCC(=O)O)[C@H](Cl)C[C@H]2O)c1 [Example 36, (Z)-7-[(1R,2S,3R,5R)-5-Chloro-2-(3,5-dimethyl-phenoxymethyl)-3-hydroxy-cyclopentyl]-hept-5-enoic acid]	6.5 mmHg	52 h	46%	9 mmHg	2 h	25%
2 nM	0.8	54 h	17 nM	315 nM	3 nM	115 nM	O=C(O)CCC/C=C\C[C@@H]1[C@@H](COc2cccc3ccccc23)[C@H](O)C[C@H]1Cl [Example 19, (Z)-7-[(1R,2S,3R,5R)-5-Chloro-3-hydroxy-2-(naphthalen-1-yloxymethyl)-cyclopentyl]-hept-5-enoic acid]	5.8 mmHg	6 h	41%	11.8 mmHg	6 h	31%
8 nM	0.9	52 h	8 nM	2290 nM	11 nM	13000 nM	O=C(O)CCC/C=C\C[C@@H]1[C@@H](COc2cc(C(F)(F)F)cc(C(F)(F)F)c2)[C@H](O)C[C@H]1Cl [Example 15, (Z)-7-[(1R,2S,3R,5R)-2-(3,5-Bis-trifluoromethyl-phenoxymethyl)-5-chloro-3-hydroxy-cyclopentyl]-hept-5-enoic acid]	4.8 mmHg	100 h	35%	11 mmHg	6 h	30%
